Laboratory results: patent US20250340563A1, “FUSED PYRIDAZINE DERIVATIVES AS NLRP3 INHIBITORS” (Takeda Pharmaceutical Company Limited, priority 2022, published 2025)

Tests used:
NLRP3 inflammasome = NLRP3 inflammasome (Homo sapiens, UniProt Q96P20); assay: IL-1β assay in IFN-γ-differentiated, LPS-primed, ATP-activated THP-1 cells (ELISA); assay type: cell-based; settings: 50 ng/mL LPS priming, 2.5 mM ATP activation, 2 hours
Method in brief: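 THP-1 cells differentiated with 25 ng/mL IFN-γ for 24 h, then primed with 50 ng/mL LPS for 24 h in serum-free medium. After 30 min compound preincubation (1:3.16 dilution series), inflammasome activated with 2.5 mM ATP for 2 h at 37 °C. Supernatant IL-1β measured by ELISA; IC50 from logistic fit of % inhibition.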

MDR1 (P-gp) = target: T1, MDR1 (P-gp) (Homo sapiens, UniProt P08183); assay: MDCK-MDR1 assay (apparent permeability and efflux ratio); assay type: in vitro ADME; settings: dog; for efflux ratio at 60 min, 1 µM: pH 7.4, MDCK-MDR1, P-gp mediated efflux ratio, read-out: MDR1 ER; for Papp A→B at 60 min, 1 µM: MDCK-MDR1 monolayer, apical to basolateral, pH 7.4, 60 minutes
T1 construct: expressed in transfected cells; host or cells: Madin-Darby Canine Kidney (MDCK) cells
Description: Madine-Darby Canine Kidney (MDCK) cells transfected with Multidrug resistance protein 1 (MDR1) are maintained in accordance with the provider's instructions in Dulbecco's Modified Eagle media (DMEM, Fisher Scientific Cat #10569044). DMEM is supplemented with 10% heat inactivated fetal bovine serum (Gibco Cat #16000-044), Penicillin-Streptomycin (100 units/mL) (Gibco Cat #15140122) and an inducer of P-gp, colchicine (200 nM) (Sigma Cat #C9754). The cells are seeded onto the apical side of HTS-Transwell-96 Plates (0.4 μm pore size, Corning Cat #3381) at a density of 6.25×10^3 cells per well with 75 μL and 250 μL of DMEM media in apical and basolateral wells, respectively, and are incubated at 37° C./5% CO2. Fresh DMEM media is exchanged in the apical and basolateral compartments after 72 hours and cells are allowed to grow into a monolayer for 144 hours before beginning the experimental incubation. Incubations are performed in Hanks' Balanced Salt Solution (HBSS, Fisher Scientific Cat #14025134) at pH 7.4 with 1% Bovine Serum Albumin (Sigma, Cat #A9418) and 10 mM HEPES (Fisher Scientific, Cat #15630080). DMEM media is removed and cells are rinsed with warm (37° C.) HBSS. HBSS with test compound at 1p M substrate concentration (0.1% v/v DMSO) is added to either the apical or basolateral compartment (75 μL or 250 μL, respectively) and blank HBSS buffer is added to the compartment which lacks test compound in singlicate. The cells are incubated for 60 minutes at 37° C./5% CO2. At the end of the incubation period, 50 μL of sample is removed from each receiver compartment and diluted into 150 μL of acetonitrile (Fisher Scientific, Cat #A996SK4)+0.1% formic acid (Sigma, Cat #F0507). The samples are centrifuged at 2000 rcf for 10 minutes at 4° C., after which 100 μL of supernatant is transferred to a new microplate and diluted with 100 μL of HPLC grade water (Fisher Scientific, Cat #W64). Samples are analyzed using a triple quadrupole mass spectrometer API-5500QTrap (ABSciex, Serial No. AU23291006) along with associated autosampler and high performance liquid chromatography pump instrumentation optimized for the detection of test articles through a Kinetix 2.1×50 mm C18 100 Å column (Phenomenex, Cat #00B-4605-AN).
Apparent permeability (Papp) values and efflux ratio are calculated using the following equations: […]

NF-κB pathway = assay: TNF-α assay in IFN-γ-differentiated, LPS-stimulated THP-1 cells (ELISA); assay type: cell-based; settings: Homo sapiens, 50 ng/mL LPS, 3 hours
Method in brief: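 THP-1 cells differentiated with 25 ng/mL IFN-γ for 24 h, then preincubated 30 min at 37 °C with compound (1:3.16 serial dilutions) in serum-free medium. Stimulated with 50 ng/mL LPS for 3 h; supernatant assayed by human TNF-α ELISA. IC50 from four-parameter logistic fit of % inhibition.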

NLRP3 inflammasome, sequence (Q96P20 whole entry): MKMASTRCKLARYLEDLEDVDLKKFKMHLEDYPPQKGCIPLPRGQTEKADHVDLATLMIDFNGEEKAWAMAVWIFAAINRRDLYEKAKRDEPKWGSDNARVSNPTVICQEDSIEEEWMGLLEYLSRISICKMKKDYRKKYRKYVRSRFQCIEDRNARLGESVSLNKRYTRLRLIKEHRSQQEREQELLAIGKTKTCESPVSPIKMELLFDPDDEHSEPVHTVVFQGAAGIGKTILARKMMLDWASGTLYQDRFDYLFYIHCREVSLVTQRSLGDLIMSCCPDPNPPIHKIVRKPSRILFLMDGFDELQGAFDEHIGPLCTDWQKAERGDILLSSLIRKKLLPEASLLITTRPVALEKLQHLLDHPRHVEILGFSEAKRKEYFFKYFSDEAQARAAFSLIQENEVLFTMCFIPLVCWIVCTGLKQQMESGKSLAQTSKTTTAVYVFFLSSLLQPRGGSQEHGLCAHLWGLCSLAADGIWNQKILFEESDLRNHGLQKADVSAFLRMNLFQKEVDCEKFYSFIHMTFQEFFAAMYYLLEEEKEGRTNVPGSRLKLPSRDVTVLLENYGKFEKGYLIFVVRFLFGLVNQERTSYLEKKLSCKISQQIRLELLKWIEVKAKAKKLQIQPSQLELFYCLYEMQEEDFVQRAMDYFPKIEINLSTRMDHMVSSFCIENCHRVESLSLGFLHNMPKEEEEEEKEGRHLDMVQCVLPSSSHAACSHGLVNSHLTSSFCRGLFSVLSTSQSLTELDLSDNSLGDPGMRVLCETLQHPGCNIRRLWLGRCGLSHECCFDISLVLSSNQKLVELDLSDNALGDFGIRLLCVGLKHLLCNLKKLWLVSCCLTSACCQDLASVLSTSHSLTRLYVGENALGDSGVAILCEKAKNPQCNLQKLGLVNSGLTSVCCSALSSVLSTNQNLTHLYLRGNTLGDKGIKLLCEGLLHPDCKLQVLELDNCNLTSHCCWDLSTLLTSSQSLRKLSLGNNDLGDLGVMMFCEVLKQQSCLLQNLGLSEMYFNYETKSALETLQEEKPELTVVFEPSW
T1 sequence (P08183 whole entry, species assumed): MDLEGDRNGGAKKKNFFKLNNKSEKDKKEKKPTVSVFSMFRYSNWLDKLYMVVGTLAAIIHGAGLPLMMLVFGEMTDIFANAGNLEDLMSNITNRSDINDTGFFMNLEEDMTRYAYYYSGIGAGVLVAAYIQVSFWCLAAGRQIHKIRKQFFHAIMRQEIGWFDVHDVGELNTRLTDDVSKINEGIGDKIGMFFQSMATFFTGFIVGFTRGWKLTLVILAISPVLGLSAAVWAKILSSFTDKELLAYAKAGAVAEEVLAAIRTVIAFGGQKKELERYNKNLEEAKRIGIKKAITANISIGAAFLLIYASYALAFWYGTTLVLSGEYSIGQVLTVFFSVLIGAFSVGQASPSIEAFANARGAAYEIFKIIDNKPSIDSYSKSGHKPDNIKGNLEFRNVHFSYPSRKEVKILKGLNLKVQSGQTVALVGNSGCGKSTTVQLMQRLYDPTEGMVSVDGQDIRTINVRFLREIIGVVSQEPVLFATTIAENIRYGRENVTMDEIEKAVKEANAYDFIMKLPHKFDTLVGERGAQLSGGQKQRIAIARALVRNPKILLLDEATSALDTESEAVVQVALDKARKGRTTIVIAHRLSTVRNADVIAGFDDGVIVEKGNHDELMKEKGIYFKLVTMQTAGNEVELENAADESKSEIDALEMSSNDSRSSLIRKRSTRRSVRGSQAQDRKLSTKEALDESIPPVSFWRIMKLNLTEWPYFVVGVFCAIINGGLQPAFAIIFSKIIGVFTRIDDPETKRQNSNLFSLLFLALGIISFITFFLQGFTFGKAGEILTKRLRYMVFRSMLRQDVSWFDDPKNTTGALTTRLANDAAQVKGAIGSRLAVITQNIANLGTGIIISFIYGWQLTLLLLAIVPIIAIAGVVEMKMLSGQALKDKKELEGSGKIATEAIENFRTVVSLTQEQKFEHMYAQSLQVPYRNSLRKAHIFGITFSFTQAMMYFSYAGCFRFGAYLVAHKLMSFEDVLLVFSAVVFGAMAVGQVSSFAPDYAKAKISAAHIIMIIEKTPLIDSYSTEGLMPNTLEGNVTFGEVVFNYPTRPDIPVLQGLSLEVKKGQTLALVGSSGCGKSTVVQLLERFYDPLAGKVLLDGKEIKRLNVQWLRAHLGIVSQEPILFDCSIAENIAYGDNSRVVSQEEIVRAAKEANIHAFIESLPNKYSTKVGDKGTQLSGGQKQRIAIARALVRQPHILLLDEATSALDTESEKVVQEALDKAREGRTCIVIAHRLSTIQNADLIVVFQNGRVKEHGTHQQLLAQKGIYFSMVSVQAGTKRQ

| SMILES | IC50 (NLRP3 inflammasome) [nM] | efflux ratio at 60 min, 1 µM (MDR1 (P-gp)) | Papp A→B at 60 min, 1 µM (MDR1 (P-gp)) [×10⁻⁶ cm/s] | IC50 (NF-κB pathway) [nM] |
| --- | --- | --- | --- | --- |
| Cc1ccc(-c2nnc(N[C@@H]3C[C@@H](F)CN(C)C3)c3c2COCC3)c(O)c1 [Example 201, 2-(1-(((3R,5R)-5-fluoro-1-methylpiperidin-3-yl)amino)-7,8-dihydro-5H-pyrano[3,4-d]pyridazin-4-yl)-5-methylphenol] | 10 | 17 | 1.7 | > 30000 |
| CN1C[C@H](F)C[C@@H](Nc2nnc(-c3ccc(Cl)cc3O)c3c2COCC3)C1 [Example 212, 5-chloro-2-(4-(((3R,5R)-5-fluoro-1-methylpiperidin-3-yl)amino)-7,8-dihydro-5H-pyrano[3,4-d]pyridazin-1-yl)phenol] | 2 | 9 | 2.1 | > 30000 |
| CN1C[C@H](F)C[C@@H](Nc2nnc(-c3ccccc3O)c3c2COCC3)C1 [Example 213, 2-(4-(((3R,5R)-5-fluoro-1-methylpiperidin-3-yl)amino)-7,8-dihydro-5H-pyrano[3,4-d]pyridazin-1-yl)phenol] | 28 | 14 | 3.1 | > 30000 |
| CN1C[C@H](F)C[C@@H](Nc2nnc(-c3ccc(OC(F)(F)F)cc3F)c3c2CCOC3)C1 [Example 214, N-((3R,5R)-5-fluoro-1-methylpiperidin-3-yl)-4-(2-fluoro-4-(trifluoromethoxy)phenyl)-7,8-dihydro-5H-pyrano[3,4-d]pyridazin-1-amine] | 556 |  |  | > 30000 |
| COc1ccc(-c2nnc(N[C@@H]3C[C@@H](F)CN(C)C3)c3c2CCOC3)c(F)c1 [Example 215, N-((3R,5R)-5-fluoro-1-methylpiperidin-3-yl)-1-(2-fluoro-4-methoxyphenyl)-7,8-dihydro-5H-pyrano[3,4-d]pyridazin-4-amine] | 160 |  |  | > 30000 |
| COc1ccc(-c2nnc(N[C@@H]3C[C@@H](F)CN(C)C3)c3c2CCOC3)c(C(F)(F)F)c1 [Example 216, N-((3R,5R)-5-fluoro-1-methylpiperidin-3-yl)-1-(4-methoxy-2-(trifluoromethyl)phenyl)-7,8-dihydro-5H-pyrano[3,4-d]pyridazin-4-amine] | 373 |  |  | > 30000 |
| CN1C[C@H](F)C[C@@H](Nc2nnc(-c3ccc(Cl)cc3F)c3c2COCC3)C1 [Example 217, 1-(4-chloro-2-fluorophenyl)-N-((3R,5R)-5-fluoro-1-methylpiperidin-3-yl)-7,8-dihydro-5H-pyrano[3,4-d]pyridazin-4-amine] | 876 |  |  | > 30000 |
| Cc1ccc(-c2nnc(N[C@@H]3CCCN(C)C3)c3c2CCOC3)c(O)c1 [Example 218, (R)-5-methyl-2-(4-((1-methylpiperidin-3-yl)amino)-7,8-dihydro-5H-pyrano[3,4-d]pyridazin-1-yl)phenol] | 2 | 26 | 1.2 | > 30000 |
| CN1C[C@H](F)C[C@@H](Nc2nnc(-c3ccc(F)cc3O)c3c2COCC3)C1 [Example 219, 5-fluoro-2-(4-(((3R,5R)-5-fluoro-1-methylpiperidin-3-yl)amino)-7,8-dihydro-5H-pyrano[3,4-d]pyridazin-1-yl)phenol] | 8 | 13 | 4.7 | > 30000 |
| Cc1ccc(-c2nnc(N[C@@H]3C[C@@H](F)CN(C)C3)c3c2CCOC3)c(O)c1 [Example 220, 2-(4-(((3R,5R)-5-fluoro-1-methylpiperidin-3-yl)amino)-7,8-dihydro-5H-pyrano[3,4-d]pyridazin-1-yl)-5-methylphenol] | 8 | 9 | 1.5 | > 30000 |
| COc1ccc(-c2nnc(N[C@@H]3CCCN(C)C3)c3c2CCOC3)c(O)c1 [Example 221, (R)-5-methoxy-2-(4-((1-methylpiperidin-3-yl)amino)-7,8-dihydro-5H-pyrano[3,4-d]pyridazin-1-yl)phenol] | 3 | 30 | 1 | > 30000 |
| COc1ccc(-c2nnc(N[C@@H]3CCCN(C)C3)c3c2CCOC3)cc1 [Example 222, (R)-1-(4-methoxyphenyl)-N-(1-methylpiperidin-3-yl)-7,8-dihydro-5H-pyrano[3,4-d]pyridazin-4-amine] | 49 |  |  | > 30000 |
| CN1CCC[C@@H](Nc2nnc(-c3ccc(Cl)cc3O)c3c2CCOC3)C1 [Example 224, (R)-5-chloro-2-(1-((1-methylpiperidin-3-yl)amino)-7,8-dihydro-5H-pyrano[3,4-d]pyridazin-4-yl)phenol] | 2 |  |  | > 30000 |
| CN1CCC[C@@H](Nc2nnc(-c3ccc(Cl)cc3O)c3c2COCC3)C1 [Example 225, (R)-5-chloro-2-(4-((1-methylpiperidin-3-yl)amino)-7,8-dihydro-5H-pyrano[3,4-d]pyridazin-1-yl)phenol] | 2 | 22 | 1.5 | > 30000 |
| CN1CCC[C@@H](Nc2nnc(-c3ccccc3O)c3c2COCC3)C1 [Example 226, (R)-2-(4-((1-methylpiperidin-3-yl)amino)-7,8-dihydro-5H-pyrano[3,4-d]pyridazin-1-yl)phenol] | 9 | 21 | 1.3 | > 30000 |
| Cc1ccc(-c2nnc(N[C@@H]3CCCC[C@H]3O)c3c2CCOC3)c(O)c1 [Example 229, 2-(4-(((1R,2R)-2-hydroxycyclohexyl)amino)-7,8-dihydro-5H-pyrano[3,4-d]pyridazin-1-yl)-5-methylphenol] | 36 | 6 | 1 | > 10000 |
| Cc1ccc(-c2nnc(N[C@@H]3CCCC[C@H]3O)c3c2COCC3)c(O)c1 [Example 230, 2-(1-(((1R,2R)-2-hydroxycyclohexyl)amino)-7,8-dihydro-5H-pyrano[3,4-d]pyridazin-4-yl)-5-methylphenol] | 121 | 7 | 1.3 | > 10000 |
| Cc1ccc(-c2nnc(NC34CCC(O)(CC3)C4)c3c2COCC3)c(O)c1 [Example 232, 4-((4-(2-hydroxy-4-methylphenyl)-7,8-dihydro-5H-pyrano[3,4-d]pyridazin-1-yl)amino)bicyclo[2.2.1]heptan-1-ol] | 155 |  |  | > 30000 |
| COCCN1CCC[C@@H](Nc2nnc(-c3ccc(C)cc3O)c3c2COCC3)C1 [Example 233, (R)-2-(4-((1-(2-methoxyethyl)piperidin-3-yl)amino)-7,8-dihydro-5H-pyrano[3,4-d]pyridazin-1-yl)-5-methylphenol] | 155 | 25 | 2 | > 30000 |
| CN1C[C@H](F)C[C@@H](Nc2nnc(-c3ccc(C(F)(F)F)cc3O)c3c2COCC3)C1 [Example 234, 2-(4-(((3R,5R)-5-fluoro-1-methylpiperidin-3-yl)amino)-7,8-dihydro-5H-pyrano[3,4-d]pyridazin-1-yl)-5-(trifluoromethyl)phenol] | 6 | 12 | 1.5 | > 30000 |
